Assay results taken from ChEMBL document CHEMBL1287683, “Highly brominated metabolites from marine red alga Laurencia similis inhibit protein tyrosine phosphatase 1B” (Bioorg Med Chem Lett, 2010).

Target: T1, Tyrosine-protein phosphatase non-receptor type 1 (Homo sapiens, UniProt P18031)
T1 sequence (P18031 whole entry): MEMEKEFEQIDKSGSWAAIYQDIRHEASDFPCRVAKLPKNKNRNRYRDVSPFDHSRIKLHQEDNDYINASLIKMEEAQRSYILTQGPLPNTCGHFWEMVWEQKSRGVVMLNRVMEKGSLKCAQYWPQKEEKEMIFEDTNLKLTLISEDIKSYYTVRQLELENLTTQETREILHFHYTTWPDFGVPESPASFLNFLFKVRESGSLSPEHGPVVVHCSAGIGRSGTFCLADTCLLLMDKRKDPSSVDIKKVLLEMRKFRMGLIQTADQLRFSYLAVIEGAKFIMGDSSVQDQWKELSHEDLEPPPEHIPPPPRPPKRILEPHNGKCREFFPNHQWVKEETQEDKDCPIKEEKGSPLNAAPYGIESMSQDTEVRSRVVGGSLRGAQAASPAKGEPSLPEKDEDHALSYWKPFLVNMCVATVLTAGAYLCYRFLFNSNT
Test: Inhibition of protein tyrosine phosphatase 1B

Row | SMILES | IC50 [µM]
1 | Cc1cc(C)c(Oc2cc(Br)cc(Br)c2Br)c(Br)c1 | 5.78
2 | COc1cc(C(=O)c2c(Br)c(Br)c(OC)c(OC)c2Br)c(Br)c(Br)c1OC | 3.82
3 | BrCc1cc(Br)c2cc(NBr)c(Br)cc2c1Br | 118
4 | BrCc1cc2cc(Br)c(NBr)cc2c(Br)c1Br | 127
5 | BrCc1cc(Br)c2cc(NBr)c(Br)c(Br)c2c1 | 185
